Laboratory results as given in patent US6143790A, “L-N^6 -(1-iminoethyl)lysine derivatives useful as nitric oxide synthase inhibitors” (G.D. Searle & Co., priority 1996, dated 2000).
Structures can show the parent of a compound that is named as a salt.

Assays:
iNOS = assay: % inhibition of iNOS at 100 μM; type: biochemical
Experimental: (§1) Citrulline Assay for Nitric Oxide Synthase Nitric oxide synthase activity was measured by monitoring the conversion of L-[2,3-3H]-arginine to L-[2,3-3H]-citrulline (1,2). Human inducible NOS (hiNOS), human endothelial constitutive NOS (hecNOS) and human neuronal constitutive NOS (hncNOS) were each cloned from RNA extracted from human tissue. The recombinant enzymes were expressed in insect cells using a baculovirus vector. Enzyme activity was isolated from cell extracts and partially purified by DEAE-Sepharose chromatography (2). Mouse inducible NOS (miNOS) was prepared from an extract of LPS-treated mouse RAW 264.7 cells and rat brain constitutive NOS (rcNOS) was prepared from an extract of rat cerebellum. Both preparations were partially purified by DEAE-Sepharose chromatography (2). Enzyme and inhibitors were added to give a volume of 50 μL in 50 mM Tris (pH 7.6) and the reaction initiated by the addition of 50 μL of a solution containing 50 mM Tris (pH 7.6), 2.0 mg/mL bovine serum albumin, 2.0 mM DTT, 4.0 mM CaCl2, 20 μM FAD, 100 μM tetrahydrobiopterin, 0.4-2.0 mM NADPH and 60 μM L-arginine containing 0.9 μCi of L-[2,3-3H]-arginine. For constitutive NOS, calmodulin was included at a final concentration of 40-100 nM. Following incubation at 37° C. for 15 minutes, the reaction was terminated by addition of 300 μL cold buffer containing 10 mM EGTA, 100 mM HEPES (pH5.5) and 1.0 mM L-citrulline. The [3H]-citrulline was separated by chromatography on Dowex 50W X-8 cation exchange resin and radioactivity quantified with a liquid scintillation counter.

[1] = biological target: T1, Human inducible NOS (hiNOS) (Homo sapiens, UniProt P35228); assay: Citrulline Assay for Nitric Oxide Synthase, hiNOS; type: biochemical
T1 construct: made in house; host or cells: insect cells, baculovirus vector
Experimental: (§2) Citrulline Assay for Nitric Oxide Synthase
as §1, with “Nitric” for “Citrulline Assay for Nitric Oxide Synthase Nitric”

[2] = biological target: T2, human endothelial constitutive NOS (hecNOS) (Homo sapiens, UniProt P29474); assay: Citrulline Assay for Nitric Oxide Synthase, hecNOS; type: biochemical
T2 construct: made in house; host or cells: insect cells, baculovirus vector
Experimental: as §2
as §1, with “Nitric” for “Citrulline Assay for Nitric Oxide Synthase Nitric”

[3] = biological target: T3, human neuronal constitutive NOS (hncNOS) (Homo sapiens, UniProt P29475); assay: Citrulline Assay for Nitric Oxide Synthase, hncNOS; type: biochemical
T3 construct: made in house; host or cells: insect cells, baculovirus vector
Experimental: as §2
as §1, with “Nitric” for “Citrulline Assay for Nitric Oxide Synthase Nitric”

RAW cell i-NOS = biological target: T4, RAW cell i-NOS (Mus musculus, UniProt P29477); assay: Raw Cell Nitrite Assay; type: cell-based; details: RAW 264.7 cells, LPS induced, L-arginine 30 μM
T4 construct: grown overnight (17 h) in the presence of LPS to induce NOS; endogenous in cells; host or cells: RAW 264.7 cells, LPS-induced
Experimental: RAW 264.7 cells are plated to confluency on a 96-well tissue culture plate grown overnight (17 h) in the presence of LPS to induce NOS. A row of 3-6 wells are left untreated and served as controls for subtraction of nonspecific background. The media is removed from each well and the cells are washed twice with Krebs-Ringers-Hepes (25 mM, pH 7.4) with 2 mg/ml glucose. The cells are then placed on ice and incubated with 50 μL of buffer containing L-arginine (30 μM) +/-inhibitors for 1 h. The assay is initiated by warming the plate to 37° C. in a water bath for 1 h. Production of nitrite by intracellular iNOS is linear with time. To terminate the cellular assay, the plate of cells is placed on ice and the nitrite-containing buffer removed and analyzed for nitrite using a previously published fluorescent determination for nitrite. All values are the average of triplicate wells and are compared to a background-subtracted induced set of cells (100% value).

[4] = test system: constitutive and the inducible NO synthase; details: constitutive vs inducible NO synthase; cited from earlier work

For CCOC(=O)C[C@@H](N)CCCNC(C)=N [Example 2d], the “% inhibiton iNOS at 100 μM” value (iNOS) was 5%.
In the case of CC(=N)NCCCC[C@H](N)C(=O)c1cccs1 [Example 12, N-[5S-amino-6-oxo-6-(2-thienyl)hexyl]ethanimidamide, hydrate], the “% inhibiton iNOS at 100 μM (symbol)” value (iNOS) is reported as “* (At 100 μM dose, response was not seen.)”.
In the case of CC(=N)NCCCC[C@H](N)C(O)c1ccccc1 (single isomer, unassigned) [Example 11A, α-[1-amino-5-[(1-iminoethyl)amino]pentyl]benzenemethanol hydrochloride dihydrate], the “% inhibiton iNOS at 100 μM (symbol)” value (iNOS) is reported as “* (At 100 μM dose, response was not seen.)”.
For CC(=N)NCCCC[C@H](N)C(O)CO (single isomer, unassigned) [Example 3A, N-(5S-amino-6,7-dihydroxyheptyl)ethanimidamide, dihydrochloride], the “% inhibiton iNOS at 100 μM” value (iNOS) was 53.4%.
In the case of CCC(N)CCCCNC(C)=N (stereo not drawn) [Example 5, N1-(1-iminoethyl) -1,5-heptanediamine], the “% inhibiton iNOS at 100 μM” value (iNOS) is reported as 27%.
In the case of CC(=N)NCCCC[C@H](N)CC(=O)O [Example 1, 3S-amino-7-[(1-iminoethyl)amino]heptanoic Acid], the IC50 [1] is reported as 61 µM, the IC50 [2] is reported as 1990 µM and the IC50 [3] is reported as 898 µM. It also gave an IC50 (RAW cell i-NOS) of 300 µM.
For CC(=N)NCCCC[C@H](N)C(O)CO (single isomer, unassigned) [Example 3B, N-(5S-amino-6,7-dihydroxyheptyl)ethanimidamide, dihydrochloride], the IC50 [1] was 12.3 µM, the IC50 [3] was 150 µM and the IC50 (RAW cell i-NOS) was 80 µM.
For CC(=N)NCCCC[C@H](N)C(O)C(C)O (single isomer, unassigned) [Example 16B, N-(5S-amino-6,7-dihydroxyoctyl) ethanimidamide, dihydrochloride hydrate], the IC50 [1] was 76.8 µM, the IC50 [2] was 5430 µM and the IC50 [3] was 670 µM. The IC50 (RAW cell i-NOS) was > 100 µM.
Work on CC(=N)NCCCC[C@H](N)C(C)(O)CO (single isomer, unassigned) [Example 15B, N-(5S-amino-6,7-dihydroxy-6-methylheptyl)ethanimidamide, hydrochloride dihydrate] yielded an IC50 [1] of 187 µM, an IC50 [2] of 6590 µM and an IC50 [3] of 441 µM.
In the case of CCOC(=O)C[C@@H](N)CCCCNC(C)=N [Example 1d, Ethyl 3S-amino-7-[(1-iminoethyl)amino]heptanoate], the “% inhibiton iNOS at 100 μM” value (iNOS) is reported as 35%.
For CC(=N)Nc1ccc(C(N)CC(=O)O)cc1.Cl.Cl.O (stereo not drawn) [Example 10, β-amino-4-[(1-iminoethyl)amino]benzenepropanoic acid, dihydrochloride hydrate], the “% inhibiton iNOS at 100 μM” value (iNOS) was 3.4%.
For CC(=N)NCCCC[C@H](N)CO [Example 48, N-(5S-amino-6-hydroxyhexyl)ethanimidamide], the “% inhibiton iNOS at 100 μM” value (iNOS) was 40.6%.
CC(=N)NCCCC[C@H](N)C(C)(O)CO (single isomer, unassigned) [Example 15A, N-(5S-amino-6,7-dihydroxy-6-methylheptyl)ethanimidamide, hydrochloride dihydrate] showed an IC50 [1] of 9.3 µM, an IC50 [2] of 2350 µM and an IC50 [3] of 99.6 µM. For the same molecule, the IC50 (RAW cell i-NOS) was 57.3 µM.
For CC(=N)NCCCC[C@H](N)C(C)=O [Example 14, N-(5S-amino-6-oxoheptyl)ethanimidamide, dihydrochloride], the “% inhibiton iNOS at 100 μM (symbol)” value (iNOS) was “* (At 100 μM dose, response was not seen.)”.
With CC(=N)NCCCC[C@H](N)C(=O)NO [Example 50, 2S-amino-N-hydroxy-6-[(1-iminoethyl)amino]hexanamide, hydrochloride] the “% inhibiton iNOS at 100 μM” value (iNOS) was 40.6%.
In the case of COC(=O)CC(N)c1ccc(NC(C)=N)cc1 (stereo not drawn) [Example 10f], the “% inhibiton iNOS at 100 μM” value (iNOS) is reported as 7.7%.
With CC(=N)NCCCC[C@H](N)C(C)O (single isomer, unassigned) [Example 40A, N-(5S-amino-6-hydroxyheptyl)ethanimidamide, dihydrochloride dihydrate] the “% inhibiton iNOS at 100 μM” value (iNOS) was 32.6%.
For CC(=N)NCCCC[C@H](N)C(COC(C)=O)OC(C)=O (stereo partly drawn) [Example 18, N-(6,7-diacetyloxy-5S-aminoheptyl)ethanimidamide, hydrochloride monohydrate], the “% inhibiton iNOS at 100 μM” value (iNOS) was 7%.
In the case of CNC(=N)NCCC[C@H](N)C(=O)O [L-NMMA, L-N-monomethyl-arginine], the “selectivity as NO synthase inhibitor” value [4] is listed as “non-selective”.
With CC(=N)NCCCC(C)N (stereo not drawn) [Example 4, Ni-(1-iminoethyl)-1,4-pentanediamine, dihydrochloride] the “% inhibiton iNOS at 100 μM” value (iNOS) was 33%.
With CC(=N)NCCCC[C@H](N)c1ncc(C)o1 [Example 49, N-[5-amino-5-(5-methyloxazol-2-yl)pentyl]ethanimidamide, hydrochloride hydrate] the “% inhibiton iNOS at 100 μM” value (iNOS) was 19.4%.
With CC(=N)NCCCC[C@H](N)C(C)O (stereo partly drawn) [Example 40B, N-(5S-amino-6-hydroxyheptyl)ethanimidamide, dihydrochloride dihydrate] the “% inhibiton iNOS at 100 μM” value (iNOS) was 14.5%.
For CC(=N)NCCCC[C@H](N)c1nnn[nH]1 [Example 41, N-[5S-amino-5-(1H-tetrazol-5-yl)pentyl]ethanimidamide, dihydrochloride], the “% inhibiton iNOS at 100 μM” value (iNOS) was 28.5%.
In the case of CC(=N)NCCCC[C@H](N)C(O)c1ccccc1 (single isomer, unassigned) [Example 11B, α-[1-amino-5-[(1-iminoethyl)amino]pentyl]benzenemethanol hydrochloride dihydrate], the “% inhibiton iNOS at 100 μM” value (iNOS) is reported as 4.6%.
In the case of CC(=N)NCCC[C@H](N)CC(=O)O [Example 2, 3S-amino-6-[(1-iminoethyl)amino]hexanoic Acid], the “% inhibiton iNOS at 100 μM (symbol)” value (iNOS) is reported as “* (At 100 μM dose, response was not seen.)”.
For CC(=N)NCCCC[C@H](N)C(O)COC(C)=O (stereo partly drawn) [Example 19, N-(5S-amino-6-hydroxy-7-acetoxyheptyl)ethanimidamide, hydrochloride monohydrate], the “% inhibiton iNOS at 100 μM” value (iNOS) was 54%.
